Laboratory results from patent publication US10544095B2 (Pfizer Inc., priority 2015, dated 2020).
pIC50: −log10 of the molar value.

Tests used:
[1] = target: human recombinant TDO2 enzyme (Homo sapiens (Human), UniProt P48775); experiment: Assay for TDO2 enzymatic activity determination; type: biochemical; details: human recombinant TDO2, L-Trp 1 mM, kynurenine absorbance at 480 nm
Method: The compounds of formula I, its subformulae, and enantiomers, salts and solvates thereof, are useful to inhibit the enzymatic activity of human TDO2. To measure the TDO2 activity, the procedure described in Dolusic et al. J. Med. Chem.; 2011, 54, […] was adapted: the reaction mixture contained (final concentrations) potassium phosphate buffer (50 mM, pH 7.5), ascorbic acid ([…]), methylene blue (0.125 μM), catalase (40 units/mL, from bovine liver, Sigma), and human recombinant TDO2 enzyme (prepared as described in Dolusic et al. J. Med. Chem.; 2011, 54, 5320-5334; 0.9 μg) without or with the compounds of the present invention at the indicated concentrations (total volume 112.5 μL). The reaction was initiated by the addition of 37.5 μL of L-Trp (final concentration 1 mM) at room temperature. The reaction was conducted at room temperature during one hour and stopped by the addition of 30 μL of 30% (w/v) trichloroacetic acid. To convert N-formylkynurenine into kynurenine, the reaction mixture was incubated at 65° C. for 30 min. […] Kynurenine concentrations were determined by measuring the absorbance at 480 nm. A standard curve was made with pure kynurenine. The TDO activity was measured as described above using ten serial concentrations of the compounds of the present invention. Data were fitted using the Prism™ software (GraphPad Software, Inc.) using standard parameters.

[2] = target: hTDO2 in human glioblastoma A172 cells (Homo sapiens (Human), UniProt P48775); experiment: Cellular assay for TDO2 activity determination in A172 cells; type: cell-based; details: overnight incubation, kynurenine absorbance at 480 nm
Sequence of hTDO2 in human glioblastoma A172 cells (P48775 whole entry): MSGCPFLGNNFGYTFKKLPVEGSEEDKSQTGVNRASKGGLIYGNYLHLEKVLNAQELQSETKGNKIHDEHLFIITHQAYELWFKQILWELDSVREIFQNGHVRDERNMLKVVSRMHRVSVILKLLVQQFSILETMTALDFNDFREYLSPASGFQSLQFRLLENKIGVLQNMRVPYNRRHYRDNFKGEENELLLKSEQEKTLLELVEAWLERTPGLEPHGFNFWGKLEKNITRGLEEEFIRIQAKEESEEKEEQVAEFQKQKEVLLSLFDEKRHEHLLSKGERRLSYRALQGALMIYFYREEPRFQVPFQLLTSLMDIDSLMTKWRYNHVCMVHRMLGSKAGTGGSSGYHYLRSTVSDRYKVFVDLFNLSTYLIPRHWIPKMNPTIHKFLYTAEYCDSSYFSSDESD
Procedure, shortened: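 Glioblastoma A172 cells with endogenous hTDO2, 1.25×10^4 cells/well, incubated overnight at 37° C. with ten serial compound concentrations in IMDM with 2% FBS. Supernatant kynurenine, after TCA precipitation and 4-(dimethylamino)-benzaldehyde reaction, read at 480 nm against kynurenine standard curve; data curve-fitted.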

TDO2 = TDO2 (Mus musculus (Mouse), UniProt P48776); experiment: Pharmacodynamic assay for TDO2 in vivo activity: increase of blood tryptophan levels in mice; details: female BALB/c mice, plasma after two hours
Sequence of TDO2 (P48776 whole entry): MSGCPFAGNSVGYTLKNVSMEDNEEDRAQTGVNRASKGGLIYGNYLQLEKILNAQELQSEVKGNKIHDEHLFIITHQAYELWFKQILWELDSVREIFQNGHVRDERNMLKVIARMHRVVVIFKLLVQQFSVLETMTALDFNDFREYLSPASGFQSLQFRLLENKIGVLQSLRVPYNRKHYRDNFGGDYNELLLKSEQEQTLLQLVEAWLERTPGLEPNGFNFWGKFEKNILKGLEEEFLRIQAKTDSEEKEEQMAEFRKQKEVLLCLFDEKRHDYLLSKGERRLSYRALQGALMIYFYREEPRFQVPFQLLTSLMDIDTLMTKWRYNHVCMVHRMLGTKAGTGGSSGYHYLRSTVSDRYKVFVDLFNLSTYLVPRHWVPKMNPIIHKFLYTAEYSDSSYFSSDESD
Method: The compounds of the present invention increase the amount of Tryptophan in mouse blood. Briefly, female BALB/c mice (7-8 weeks old) were treated with either a suspension of one of the compounds of the present invention in 0.5% hydroxypropyl methyl cellulose (HPMC) K4M (4000 mPa·s (cPs), Methocell™, Dow chemical)/0.25% Tween® 20 (Sigma Aldrich) at different doses (30, 60 and 100 mg/kg), or with a vehicle control (0.5% HPMC K4M/0.25% Tween 20), by the oral route by gavage (dosing volume 5 mL/kg, 10 mice per group). After two hours, blood was harvested, plasma was prepared and the amount of Tryptophan present was determined by LC-MS-MS (HPLC column Unison UK-Phenyl, 75×4.6, 3 μm, flow rate 0.8 mL/min, 8 minutes gradient from 95% water+0.1% formic acid/5% Acetonitrile+0.1% formic acid to 5% water+0.1% formic acid/95% Acetonitrile+0.1% formic acid, retention time 2.4 min; API4000 MS-MS system from AB Sciex, ESI+ mode, parent ion 205.1, daughter ion 146.1).

Sequence of human recombinant TDO2 enzyme (P48775 whole entry): as the sequence (P48775 whole entry) above

Structure (SMILES) | pIC50 [1] | pIC50 [2] | further results
CC(=O)NCCNS(=O)(=O)c1ccc(-c2c[nH]c3cc(F)ccc23)cc1 [Example 16, N-(2-(4-(6-fluoro-1H-indol-3-yl)phenylsulfonamido)-ethyl)acetamide] |  | 6.74 | Trp in plasma (average ± standard error of the mean) (TDO2; 30 mg/kg oral gavage): 32700 ng/mL; Trp in plasma (average ± standard error of the mean) (TDO2; 60 mg/kg oral gavage): 35300 ng/mL; Trp in plasma (average ± standard error of the mean) (TDO2; 100 mg/kg oral gavage): 34000 ng/mL
CN(CCS(N)(=O)=O)S(=O)(=O)c1ccc(-c2c[nH]c3cc(F)ccc23)cc1 [Example 98, 4-(6-fluoro-1H-indol-3-yl)-N-methyl-N-(2-sulfamoylethyl)benzenesulfonamide] | 6.04 | 6.60 | 
O=S(=O)(c1ccc(-c2c[nH]c3cc(F)ccc23)cc1)N1CCC(O)(c2cncnc2)C1 (stereo not drawn) [Example 120, 1-((4-(6-fluoro-1H-indol-3-yl)phenyl)sulfonyl)-3-(pyrimidin-5-yl)pyrrolidin-3-ol] | 6.92 | 6.92 | 
CN1CC(CNS(=O)(=O)c2ccc(-c3c[nH]c4cc(F)ccc34)cc2)OCC1=O (stereo not drawn) [Example 86, 4-(6-fluoro-1H-indol-3-yl)-N-[(4-methyl-5-oxomorpholin-2-yl)methyl]benzenesulfonamide] | 5.89 | 6.59 | 
O=C1CCN(S(=O)(=O)c2ccc(-c3c[nH]c4cc(F)ccc34)cc2)CCN1 [Example 90, 1-((4-(6-fluoro-1H-indol-3-yl)phenyl)sulfonyl)-1,4-diazepan-5-one] | 5.70 | 6.89 | 
CS(=O)(=O)CCNS(=O)(=O)c1ccc(-c2c[nH]c3cc(F)ccc23)cc1 [Example 88, 4-(6-fluoro-1H-indol-3-yl)-N-[2-(methylsulfonyl)ethyl]-benzene-sulfonamide] | 6.03 | 7.02 | 
O=S(=O)(c1c(Cl)cc(-c2c[nH]c3cc(F)ccc23)cc1Cl)N1CCNCC1 [Example 76, 3-(3,5-dichloro-4-(piperazin-1-ylsulfonyl)phenyl)-6-fluoro-1H-indole] | 6.33 | 6.08 | 
N#Cc1cc(-c2c[nH]c3cc(F)ccc23)ccc1S(=O)(=O)N1CCNCC1 [Example 32, 5-(6-Fluoro-1H-indol-3-yl)-2-(piperazine-1-sulfonyl)-benzonitrile] | 6.14 | 6.77 | 
O=S1(=O)CCC(NS(=O)(=O)c2ccc(-c3c[nH]c4cc(F)ccc34)cc2)C1 (stereo not drawn) [Example 87, N-(1,1-dioxidotetrahydrothiophen-3-yl)-4-(6-fluoro-1H-indol-3-yl)-benzenesulfonamide] | 6.03 | 6.77 | 
C[C@H](CO)NS(=O)(=O)c1ccc(-c2c[nH]c3cc(F)ccc23)cc1 [Example 96, 4-(6-fluoro-1H-indol-3-yl)-N-[(2R)-1-hydroxypropan-2-yl]benzenesulfonamide] | 6.00 | 6.80 | 
NC(=O)[C@H]1C[C@@H](NS(=O)(=O)c2ccc(-c3c[nH]c4cc(F)ccc34)cc2)C1 [Example 95, (cis)-3-(4-(6-fluoro-1H-indol-3-yl)phenylsulfon-amido)cyclobutanecarboxamide] | 5.89 | 6.85 | 
O=S(=O)(NCCn1cncn1)c1ccc(-c2c[nH]c3cc(F)ccc23)cc1 [Example 99, 4-(6-fluoro-1H-indol-3-yl)-N-[2-(1H-1,2,4-triazol-1-yl)-ethyl]benzenesulfonamide] | 5.96 | 6.52 | 
NC(=O)CCNS(=O)(=O)c1ccc(-c2c[nH]c3cc(F)ccc23)cc1 [Example 26, 3-(4-(6-fluoro-1H-indol-3-yl)phenylsulfonamido)propanamide] | 6.14 | 6.96 | 
O=S(=O)(c1ccc(-c2c[nH]c3cc(F)ccc23)cc1)N1CC[C@@H](O)C1 [Example 77, (R)-1-((4-(6-fluoro-1H-indol-3-yl)phenyl)sulfonyl)-pyrrolidin-3-ol] | 6.77 | 7.26 | 
CS(=O)(=O)c1ccc(-c2c[nH]c3cc(F)ccc23)cc1 [Example 1, 6-Fluoro-3-(4-methanesulfonyl-phenyl)-1H-indole] | 5.82 | 7.08 | 

Further lines, with some results ahead:

pIC50 [1] | pIC50 [2] | Structure (SMILES) | further results
5.68 | 6.89 | O=S(=O)(c1ccc(-c2c[nH]c3cc(F)ccc23)cc1)N1CCNCC1 [Example 4, 6-fluoro-3-(4-(piperazin-1-ylsulfonyl)phenyl)-1H-indole] | 
6.28 | 6.54 | Cc1cc(-c2c[nH]c3cc(F)ccc23)ccc1S(=O)(=O)N1CCNCC1 [Example 34, 6-fluoro-3-(3-methyl-4-(piperazin-1-ylsulfonyl)-phenyl)-1H-indole] | 
6.05 | 7.02 | NCCNS(=O)(=O)c1ccc(-c2c[nH]c3cc(F)ccc23)cc1 [Example 8, N-(2-aminoethyl)-4-(6-fluoro-1H-indol-3-yl)-benzenesulfonamide] | 
6.11 | 6.37 | NCCNS(=O)(=O)c1cc(-c2c[nH]c3cc(F)ccc23)ccc1Cl [Example 36, N-(2-aminoethyl)-2-chloro-5-(6-fluoro-1H-indol-3-yl)-benzenesulfonamide] | 
5.68 | 6.96 | O=C(c1ccc(-c2c[nH]c3cc(F)ccc23)cc1)N1CCNCC1 [Example 3, (4-(6-fluoro-1H-indol-3-yl)phenyl)(piperazin-1-yl)methanone] | 
5.96 | 6.72 | O=S(=O)(c1ccc(-c2c[nH]c3cc(F)ccc23)cc1)N1CCN[C@H](CO)C1 [Example 18, (S)-(4-((4-(6-fluoro-1H-indol-3-yl)phenyl)sulfonyl)piperazin-2-yl)methanol] | increase of circulating Tryptophan compared to vehicle-treated controls (TDO2; 30 mg/kg oral gavage): 67%; increase of circulating Tryptophan compared to vehicle-treated controls (TDO2; 60 mg/kg oral gavage): 81%; increase of circulating Tryptophan compared to vehicle-treated controls (TDO2; 100 mg/kg oral gavage): 74%
5.33 | 6.60 | O=S(=O)(c1ccc(-c2c[nH]c3cc(F)ccc23)cc1)N1CCOCC1 [Example 5, 4-((4-(6-fluoro-1H-indol-3-yl)phenyl)sulfonyl)morpholine] | 
6.26 | 6.70 | C[C@@H](O)CNS(=O)(=O)c1ccc(-c2c[nH]c3cc(F)ccc23)cc1 [Example 93, (−)-(R)-4-(6-fluoro-1H-indol-3-yl)-N-(2-hydroxypropyl)-benzenesulfonamide] | 
6.92 | 7.03 | O=S(=O)(c1ccc(-c2c[nH]c3cc(F)ccc23)cc1)N1CC[C@H](O)C1 [Example 79, (S)-1-((4-(6-fluoro-1H-indol-3-yl)phenyl)sulfonyl)-pyrrolidin-3-ol] | 
6.08 | 6.52 | C[C@H](O)CNS(=O)(=O)c1ccc(-c2c[nH]c3cc(F)ccc23)cc1 [Example 94, (+)-(S)-4-(6-fluoro-1H-indol-3-yl)-N-(2-hydroxypropyl)-benzenesulfonamide] | 
6.02 | 6.96 | CNC(=O)CCNS(=O)(=O)c1ccc(-c2c[nH]c3cc(F)ccc23)cc1 [Example 50, 3-(4-(6-fluoro-1H-indol-3-yl)phenylsulfonamido)-N-methylpropanamide] | 
6.03 | 6.77 | O=C1CN(S(=O)(=O)c2ccc(-c3c[nH]c4cc(F)ccc34)cc2)CCN1 [Example 40, 4-((4-(6-fluoro-1H-indol-3-yl)phenyl)sulfonyl)piperazin-2-one] | 
6.28 | 6.89 | O=S(=O)(c1ccc(-c2c[nH]c3cc(F)ccc23)cc1)N1C[C@@H](O)[C@@H](O)C1 [Example 58, (cis)-1-((4-(6-fluoro-1H-indol-3-yl)phenyl)sulfonyl)-pyrrolidine-3,4-diol] | 
5.74 | 6.62 | NCCNS(=O)(=O)c1cccc(-c2c[nH]c3cc(F)ccc23)c1 [Example 9, N-(2-aminoethyl)-3-(6-fluoro-1H-indol-3-yl)benzenesulfonamide] | 
